From patent publication US10150761B2, “Substituted pyridine-piperazinyl analogues as RSV antiviral compounds” (Janssen Sciences Ireland UC, priority 2013, dated 2018)

Tests used:
rgRSV224 virus = assay: Antiviral activity: rgRSV224 (GFP) replication in HeLa cells; format: cell-based, respiratory syncytial virus (RSV); details: for EC50: human respiratory syncytial virus, HeLa, 72 h, read-out: RSV HELA pEC50, rgRSV224 virus (MOI=1), HeLa cells, GFP expression, three days post-virus exposure (converted)
Protocol: Black 384-well clear-bottom microtiter plates (Corning, Amsterdam, The Netherlands) were filled via acoustic drop ejection using the echo liquid handler (Labcyte, Sunnyvale, Calif.), 200 nL of compound stock solutions (100% DMSO) were transferred to the assay plates, 9 serial 4-fold dilutions of compound were made, creating per quadrant the same compound concentration. The assay was initiated by adding 10 μL of culture medium to each well (RPMI medium without phenol red, 10% FBS-heat inactivated, 0.04% gentamycin (50 mg/mL). All addition steps are done by using a multidrop dispenser (Thermo Scientific, Erembodegem, Belgium). Next, rgRSV224 virus (MOI=1) diluted in culture medium was added to the plates, rgRSV224 virus is an engineered virus that includes an additional GFP gene (Hallak L K, Spillmann D. Collins P L, Peeples M E.
(§1) Glycosaminoglycan sulfation requirements for respiratory syncytial virus infection; Journal of virology (2000), 74(22), 10508-13) and was in-licensed from the NIH (Bethesda, Md., USA). Finally, 20 μL of a HeLa cell suspension (3,000 cells/well) were plated. Medium, virus- and mock-infected controls were included in each test. The wells contain 0.05% DMSO per volume. Cells were incubated at 37° C. in a 5% CO2 atmosphere. Three days post-virus exposure, viral replication was quantified by measuring GFP expression in the cells by an in house developed MSM laser microscope (Tibotec. Beerse, Belgium). The EC50 was defined as the 50% inhibitory concentration for GFP expression. In parallel, compounds were incubated for three days in a set of white 384-well microtiter plates (Corning) and the cytotoxicity of compounds in HeLa cells was determined by measuring the ATP content of the cells using the ATPlite kit (PerkinElmer, Zaventem, Belgium) according to the manufacturer's instructions. The CC50 was defined as the 50% concentration for cytotoxicity.

HeLa cells = assay: Cytotoxicity in HeLa cells (ATP content, ATPlite kit); format: cell-based; details: three days incubation
Protocol: as §1

[1] = Cytotoxicity in HeLa cells (ATP content, ATPlite kit); format: cell-based; details: human, three days incubation, read-out: TOX HELA pCC50 (converted)
Protocol: as §1

Row | SMILES | RSV HELA pEC50 (rgRSV224 virus; rgRSV224 virus (MOI=1), HeLa cells, GFP expression, three days post-virus exposure) | TOX HELA pCC50 (HeLa cells) | melting point [°C] | EC50 (rgRSV224 virus) [nM] | CC50 at 3 days [1] [nM]
1 | COc1ccc(-c2ncccc2N2CCN(c3ccncc3)CC2)cc1 [Compound 4] | 6.38 | <4.01 | 216 |  | 
2 | c1cnc(-c2ccc3cc[nH]c3c2)c(N2CCN(c3ccncc3)CC2)c1 [Compound 44] |  |  | 195 | 32.4 | 53700
3 | Fc1ccc(-c2ncccc2N2CCN(c3ccncc3)CC2)cc1 [Compound 13] |  |  | 173.62 | 603 | > 89100
4 | Clc1cc(N2CCN(c3cccnc3-c3ccccc3)CC2)ccn1 [Compound 32] |  |  | 122 | 105 | 135
5 | CC(=O)c1cccc(-c2ncccc2N2CCN(c3ccccc3)CC2)c1 [Compound 8] |  |  | 175.94 | 646 | > 100000
6 | CSc1ccc(-c2ncccc2N2CCN(c3ccncc3)CC2)cc1 [Compound 35] |  |  | 160 | 117 | 45700
7 | c1cnc(N2CCN(c3ccncc3)CC2)c(N2CCN(c3ccncc3)CC2)c1 [Compound 69] |  |  | 186 | 933 | 40700
8 | c1cnc(-c2cc3ccccc3o2)c(N2CCN(c3ccncc3)CC2)c1 [Compound 23] |  |  | 252 | 58.9 | > 50100
9 | Clc1ccc(-c2ncccc2N2CCN(c3ccncc3)CC2)cc1Cl [Compound 11] |  |  | 159.5 | 269 | 28200
10 | Cn1ccc2c(-c3ncccc3N3CCN(c4ccncc4)CC3)cccc21 [Compound 43] |  |  | 170 | 30.2 | 45700
11 | COc1ccc(-c2ccc(-c3ncccc3N3CCN(c4ccncc4)CC3)cc2)cc1 [Compound 62] |  |  | 178 | 257 | 11500
12 | c1coc(-c2ccc(-c3nccnc3N3CCN(c4ccncc4)CC3)cc2)c1 [Compound 55] |  |  | 153.75 | 794 | 36300
13 | CCn1ccc2cc(-c3ncccc3N3CCN(c4ccncc4)CC3)ccc21 [Compound 37] |  |  | 110 | 30.9 | 21900
14 | c1ccc(-c2ncccc2N2CCN(c3ccncc3)CC2)cc1 [Compound 2] |  |  | 204.15 | 603 | 1120
15 | c1cnc(-c2cccc3cc[nH]c23)c(N2CCN(c3ccncc3)CC2)c1 [Compound 39] |  |  | 162 | 851 | 55000
16 | c1cnc(-c2ccncc2)c(N2CCN(c3ccncc3)CC2)c1 [Compound 20] |  |  | 166 | 871 | > 100000
17 | COc1ccc(-c2ncccc2N2CCN(c3ccncc3)CC2)cn1 [Compound 17] |  |  | 138 | 437 | > 97700
18 | c1cnc(-c2cccc3ncccc23)c(N2CCN(c3ccncc3)CC2)c1 [Compound 31] |  |  | 96 | 724 | > 97700
19 | c1cnc(-c2ccc3[nH]ccc3c2)c(N2CCN(c3ccncc3)CC2)c1 [Compound 36] |  |  | 252 | 79.4 | 44700
20 | OCCCn1c(-c2ncccc2N2CCN(c3ccncc3)CC2)cc2ccccc21 [Compound 50] |  |  | 110 | 6.61 | > 100000
21 | Cn1ccc2cc(-c3ncccc3N3CCN(c4ccncc4)CC3)ccc21 [Compound 24] |  |  | 197 | 72.4 | 46800
22 | OC(c1ccccc1)(c1ccccc1)c1ncccc1N1CCN(c2ccncc2)CC1 [Compound 68] |  |  | 260 | 25.1 | > 25100
23 | Cn1ccc2ccc(-c3ncccc3N3CCN(c4ccncc4)CC3)cc21 [Compound 41] |  |  | 174.57 | 11.5 | 49000
24 | c1cnc(-c2cccc3ccccc23)c(N2CCN(c3ccncc3)CC2)c1 [Compound 26] |  |  | 90 | 85.1 | 7410
